Laboratory results: US4327097A, “Novel penicillins” (Toyama Chemical Co., Ltd., priority 1974, dated 1982)
In brackets after ≈: the same amount, converted by molar mass.

Assays:
Escherichia coli = experiment: MIC against clinical isolates; assay type: cell-based; settings: Table 5-2, clinical isolate; unit assumed
Shigella sonnei = experiment: MIC against clinical isolates; assay type: cell-based; settings: Table 5-5, clinical isolate; unit assumed
Procedure: (§1) The minimum inhibitory concentration (MIC) was determined by the plate method disclosed in "Chemotherapy" (Japan), Vol. 16, (1968), pages 98-99. The culture medium used was a Heart infusion agar (pH 7.4). The number of the cells per plate used in the inoculum was 10^4 (10^6 cells/ml).
(§2) MIC was determined in the same manner as in the preceding paragraph (1).

Shigella flexneri = experiment: MIC against clinical isolates; assay type: cell-based; settings: Table 5-5, clinical isolate; unit assumed
Procedure: as §1, §2

[1] = tested on: Pseudomonas aeruginosa I.F.O.; experiment: MIC, plate method, standard strains; assay type: cell-based; settings: Table 3, standard strain; unit assumed
Procedure, shortened: (§3)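 Heart infusion agar, pH 7.4, plate method. Inoculum: 10^4 cells/plate (10^6 cells/ml). Read-out: MIC.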

[2] = tested on: Staphylococcus aureus 209p; experiment: MIC, plate method, standard strains; assay type: cell-based; settings: Table 3, standard strain, Heart infusion agar pH 7.4; unit assumed
Procedure, shortened: as §3

Klebsiella pneumoniae [3] = experiment: MIC, plate method, standard strains; assay type: cell-based; settings: Table 3, standard strain; unit assumed
Procedure, shortened: as §3

Proteus vulgaris 3027 = experiment: MIC, plate method, standard strains; assay type: cell-based; settings: Table 3, standard strain; unit assumed
Procedure, shortened: as §3

Escherichia coli NIHJ = experiment: MIC, plate method, standard strains; assay type: cell-based; settings: Table 3, standard strain; unit assumed
Procedure, shortened: as §3

Pseudomonas aeruginosa = experiment: MIC against clinical isolates; assay type: cell-based; settings: unit assumed
Klebsiella pneumoniae [4] = experiment: MIC against clinical isolates; assay type: cell-based; settings: Table 5-4, clinical isolate; unit assumed
Proteus vulgaris = experiment: MIC against clinical isolates; assay type: cell-based; settings: Table 5-6, clinical isolate; unit assumed
[5] = tested on: β-lactamase, Pseudomonas aeruginosa GN 238; experiment: Resistant activity against β-lactamase, iodometric assay; assay type: biochemical; settings: β-lactamase from Pseudomonas aeruginosa GN 238; Potassium Penicillin G = 100
Procedure: (3) Resistant activity against β-lactamase, Pseudomonas aerugionsa GN 238:
The resistant activity of each compound against β-lactamase was measured in the manner described below.
β-Lactamase was prepared from Pseudomonas aeruginosa GN 238. This microorganism was cultured in 100 ml of a medium containing 2 g of yeast extract, 10 g of polypeptone, 2 g of glucose, 7 g of disodium hydrogen phosphate, 2 g of potassium dihydrogen phosphate, 1.2 g of ammonium sulfate and 0.4 g of magnesium sulfate, per liter, in a 500-ml Erlenmeyer flask for 6 hrs. at 37° C. with shaking. The resulting cells were collected by centrifugation (5,000 r.p.m.×10 min.), washed three times with 0.1 M phosphate buffer (pH 7.0). Subsequently, the cells were subjected to sonication (20 KHz, 20 min.) and then centrifuged at 15,000 r.p.m. for 60 min. By using the supernatant of enzyme fluid, the resistance of each compound against β-lactamase was determined by the iodometric assay method. Each numeral shown in Table 7 is a relative activity value calculated by assuming as 100 the activity of the control Potassium Penicillin G.

Staphylococcus aureus = experiment: MIC against clinical isolates; assay type: cell-based; settings: Table 5-1, clinical isolate; unit assumed
Salmonella typhi-murium = experiment: MIC against clinical isolates; assay type: cell-based; settings: Table 5-5, clinical isolate; unit assumed
Proteus morganii = experiment: MIC against clinical isolates; assay type: cell-based; settings: Table 5-6, clinical isolate; unit assumed
Proteus mirabilis = experiment: MIC against clinical isolates; assay type: cell-based; settings: Table 5-6, clinical isolate; unit assumed

CN1CCN(C(=O)NC(C(=O)NC2C(=O)N3C2SC(C)(C)C3C(=O)O)c2ccccc2)C(=O)C1=O (single isomer, unassigned) [Compound 37]
MIC Escherichia coli GN 3435 (Escherichia coli): 3.13 mg/L (≈ 6.22 µM)
MIC Escherichia coli GN 3452 (Escherichia coli): 12.5 mg/L (≈ 24.8 µM)
MIC Escherichia coli GN 3465 (Escherichia coli): 200 mg/L (≈ 397 µM)
MIC Escherichia coli GN 3481 (Escherichia coli): 6.25 mg/L (≈ 12.4 µM)
MIC Escherichia coli GN 3611 (Escherichia coli): > 200 mg/L
MIC Escherichia coli K-1 (Escherichia coli): 12.5 mg/L (≈ 24.8 µM)
MIC Escherichia coli K-2 (Escherichia coli): 6.25 mg/L (≈ 12.4 µM)
MIC Escherichia coli K-3 (Escherichia coli): > 200 mg/L
MIC Escherichia coli K-4 (Escherichia coli): 3.13 mg/L (≈ 6.22 µM)
MIC Shigella sonnei JS 11232 (Shigella sonnei): 100 mg/L (≈ 199 µM)
MIC Shigella sonnei JS 11755 (Shigella sonnei): 6.25 mg/L (≈ 12.4 µM)
MIC Shigella flexneri JS 11215 (Shigella flexneri): > 200 mg/L
MIC Shigella flexneri JS 11839 (Shigella flexneri): 6.25 mg/L (≈ 12.4 µM)
MIC Pseudomonas aeruginosa I.F.C [1]: 6.25 mg/L (≈ 12.4 µM)
MIC Staphylococcus aureus 209p [2]: < 1.57 mg/L
MIC Klebsiella pneumoniae (Klebsiella pneumoniae [3]): 6.25 mg/L (≈ 12.4 µM)
MIC Proteus vulgaris 3027 (Proteus vulgaris 3027): < 1.57 mg/L
MIC Esche--richin coil NIHJ (Escherichia coli NIHJ): < 1.57 mg/L
MIC Pseudomonas aeruginosa GN (Pseudomonas aeruginosa; Table 5-3, clinical isolate, strain number not given): 50 mg/L (≈ 99.3 µM)
MIC Pseudomonas aeruginosa GN 82 (Pseudomonas aeruginosa; Table 5-3, clinical isolate): 6.25 mg/L (≈ 12.4 µM)
MIC Pseudomonas aeruginosa GN 163 (Pseudomonas aeruginosa; Table 5-3, clinical isolate): 12.5 mg/L (≈ 24.8 µM)
MIC Pseudomonas aeruginosa GN 221 (Pseudomonas aeruginosa; Table 5-3, clinical isolate): 6.25 mg/L (≈ 12.4 µM)
MIC Pseudomonas aeruginosa GN 376 (Pseudomonas aeruginosa; Table 5-3, clinical isolate): 12.5 mg/L (≈ 24.8 µM)
MIC Pseudomonas aeruginosa GN 1035 (Pseudomonas aeruginosa; Table 5-3, clinical isolate): 50 mg/L (≈ 99.3 µM)
MIC Pseudomonas aeruginosa GN 1091 (Pseudomonas aeruginosa; Table 5-3, clinical isolate): 12.5 mg/L (≈ 24.8 µM)
MIC Pseudomonas neruginosa S-1 (Pseudomonas aeruginosa; Table 5-4, clinical isolate): 200 mg/L (≈ 397 µM)
MIC Pseudomonas neruginosa S-3 (Pseudomonas aeruginosa; Table 5-4, clinical isolate): 50 mg/L (≈ 99.3 µM)
MIC Pseudomonas neruginosa S-4 (Pseudomonas aeruginosa; Table 5-4, clinical isolate): 100 mg/L (≈ 199 µM)
MIC Klebsiella pneumoniae GN 917 (Klebsiella pneumoniae [4]): 12.5 mg/L (≈ 24.8 µM)
MIC Klebsiella pneumoniae GN 4081 (Klebsiella pneumoniae [4]): 200 mg/L (≈ 397 µM)
MIC Klebsiella pneumoniae GN 4117 (Klebsiella pneumoniae [4]): 100 mg/L (≈ 199 µM)
MIC Proteus vulgaris (Proteus vulgaris): < 0.4 mg/L
Relative activity (%), resistant activity against β-lactamase [5]: 15%
MIC Staphylococcus aureus F-1 (Staphylococcus aureus): 12.5 mg/L (≈ 24.8 µM)
MIC Staphylococcus aureus F-3 (Staphylococcus aureus): 3.13 mg/L (≈ 6.22 µM)
MIC Staphylococcus aureus F-4 (Staphylococcus aureus): 6.25 mg/L (≈ 12.4 µM)
MIC Staphylococcus aureus F-5 (Staphylococcus aureus): > 200 mg/L
MIC Staphylococcus aureus MS 8588 (Staphylococcus aureus): 3.13 mg/L (≈ 6.22 µM)
MIC Staphylococcus aureus MS 8596 (Staphylococcus aureus): 3.13 mg/L (≈ 6.22 µM)
MIC Staphylococcus aureus MS 8684 (Staphylococcus aureus): 3.13 mg/L (≈ 6.22 µM)
MIC Staphylococcus aureus MS 8713 (Staphylococcus aureus): 12.5 mg/L (≈ 24.8 µM)
MIC Salmonella typhi-murium SL 2136 (Salmonella typhi-murium): > 200 mg/L

CCCN1CCN(C(=O)NC(C(=O)NC2C(=O)N3C2SC(C)(C)C3C(=O)O)c2ccccc2)C(=O)C1=O (single isomer, unassigned) [Compound 38]
MIC Escherichia coli GN 3452 (Escherichia coli): 3.13 mg/L (≈ 5.89 µM)
MIC Escherichia coli GN 3465 (Escherichia coli): 50 mg/L (≈ 94.1 µM)
MIC Escherichia coli GN 3481 (Escherichia coli): 3.13 mg/L (≈ 5.89 µM)
MIC Escherichia coli GN 3611 (Escherichia coli): > 200 mg/L
MIC Escherichia coli K-1 (Escherichia coli): 3.13 mg/L (≈ 5.89 µM)
MIC Escherichia coli K-2 (Escherichia coli): 3.13 mg/L (≈ 5.89 µM)
MIC Escherichia coli K-3 (Escherichia coli): > 200 mg/L
MIC Shigella sonnei JS 11232 (Shigella sonnei): 50 mg/L (≈ 94.1 µM)
MIC Shigella sonnei JS 11755 (Shigella sonnei): 3.13 mg/L (≈ 5.89 µM)
MIC Shigella flexneri JS 11215 (Shigella flexneri): 25 mg/L (≈ 47 µM)
MIC Shigella flexneri JS 11839 (Shigella flexneri): 1.57 mg/L (≈ 2.95 µM)
MIC Staphylococcus aureus 209p [2]: 0.4 mg/L (≈ 0.752 µM)
MIC Klebsiella pneumoniae (Klebsiella pneumoniae [3]): 3.13 mg/L (≈ 5.89 µM)
MIC Proteus vulgaris 3027 (Proteus vulgaris 3027): 0.4 mg/L (≈ 0.752 µM)
MIC Esche--richin coil NIHJ (Escherichia coli NIHJ): < 0.1 mg/L
MIC Pseudomonas aeruginosa GN 82 (Pseudomonas aeruginosa; Table 5-3, clinical isolate): 3.13 mg/L (≈ 5.89 µM)
MIC Pseudomonas aeruginosa GN 163 (Pseudomonas aeruginosa; Table 5-3, clinical isolate): 3.13 mg/L (≈ 5.89 µM)
MIC Pseudomonas aeruginosa GN 376 (Pseudomonas aeruginosa; Table 5-3, clinical isolate): 3.13 mg/L (≈ 5.89 µM)
MIC Pseudomonas aeruginosa GN 1091 (Pseudomonas aeruginosa; Table 5-3, clinical isolate): 3.13 mg/L (≈ 5.89 µM)
MIC Klebsiella pneumoniae GN 917 (Klebsiella pneumoniae [4]): 3.13 mg/L (≈ 5.89 µM)
MIC Klebsiella pneumoniae GN 4081 (Klebsiella pneumoniae [4]): 50 mg/L (≈ 94.1 µM)
MIC Klebsiella pneumoniae GN 4117 (Klebsiella pneumoniae [4]): 50 mg/L (≈ 94.1 µM)
MIC Proteus vulgaris (Proteus vulgaris): < 0.4 mg/L
Relative activity (%), resistant activity against β-lactamase [5]: 15%
MIC Staphylococcus aureus F-2 (Staphylococcus aureus): 1.57 mg/L (≈ 2.95 µM)
MIC Staphylococcus aureus F-5 (Staphylococcus aureus): > 200 mg/L
MIC Staphylococcus aureus MS 8588 (Staphylococcus aureus): 3.13 mg/L (≈ 5.89 µM)
MIC Staphylococcus aureus MS 8596 (Staphylococcus aureus): 3.13 mg/L (≈ 5.89 µM)
MIC Staphylococcus aureus MS 8684 (Staphylococcus aureus): 3.13 mg/L (≈ 5.89 µM)
MIC Proteus morganii (Proteus morganii): < 0.4 mg/L
MIC Salmonella typhi-murium SL 2136 (Salmonella typhi-murium): 200 mg/L (≈ 376 µM)
MIC Proteus mirabilis (Proteus mirabilis): < 0.4 mg/L

CCCCN1CCN(C(=O)NC(C(=O)NC2C(=O)N3C2SC(C)(C)C3C(=O)O)c2ccccc2)C(=O)C1=O (single isomer, unassigned) [Compound 39]
MIC Escherichia coli GN 3481 (Escherichia coli): 1.57 mg/L (≈ 2.88 µM)
MIC Escherichia coli GN 3611 (Escherichia coli): > 200 mg/L
MIC Escherichia coli K-1 (Escherichia coli): 1.57 mg/L (≈ 2.88 µM)
MIC Escherichia coli K-2 (Escherichia coli): 1.57 mg/L (≈ 2.88 µM)
MIC Escherichia coli K-3 (Escherichia coli): > 200 mg/L
MIC Shigella sonnei JS 11232 (Shigella sonnei): 25 mg/L (≈ 45.8 µM)
MIC Shigella sonnei JS 11755 (Shigella sonnei): 1.57 mg/L (≈ 2.88 µM)
MIC Shigella flexneri JS 11215 (Shigella flexneri): 25 mg/L (≈ 45.8 µM)
MIC Shigella flexneri JS 11839 (Shigella flexneri): 0.79 mg/L (≈ 1.45 µM)
MIC Staphylococcus aureus 209p [2]: 0.4 mg/L (≈ 0.733 µM)
MIC Klebsiella pneumoniae (Klebsiella pneumoniae [3]): 1.57 mg/L (≈ 2.88 µM)
MIC Proteus vulgaris 3027 (Proteus vulgaris 3027): 0.4 mg/L (≈ 0.733 µM)
MIC Esche--richin coil NIHJ (Escherichia coli NIHJ): < 0.1 mg/L
MIC Klebsiella pneumoniae GN 917 (Klebsiella pneumoniae [4]): 1.57 mg/L (≈ 2.88 µM)
MIC Proteus vulgaris (Proteus vulgaris): < 0.4 mg/L
Relative activity (%), resistant activity against β-lactamase [5]: 15%
MIC Staphylococcus aureus F-2 (Staphylococcus aureus): 1.57 mg/L (≈ 2.88 µM)
MIC Staphylococcus aureus F-3 (Staphylococcus aureus): 1.57 mg/L (≈ 2.88 µM)
MIC Staphylococcus aureus F-5 (Staphylococcus aureus): > 200 mg/L
MIC Staphylococcus aureus MS 8588 (Staphylococcus aureus): 1.57 mg/L (≈ 2.88 µM)
MIC Staphylococcus aureus MS 8596 (Staphylococcus aureus): 1.57 mg/L (≈ 2.88 µM)
MIC Proteus morganii (Proteus morganii): < 0.4 mg/L
MIC Salmonella typhi-murium SL 2136 (Salmonella typhi-murium): 100 mg/L (≈ 183 µM)
MIC Proteus mirabilis (Proteus mirabilis): < 0.4 mg/L
